Where two headings read alike, the source gives them in different places. *1 amine or outer side, *2 acyl side, *3 side chain or, on linkers, in order; H or OH if unused. Where a SMILES comes first, the peptide text is derived from it. Bridges are numbered along the chain shown (N, C = ends). [ ]: non-standard residue; d: D form. The star is where a group is joined. Orn(4R-OH,5R-OCH2CH2NMe3+) = C[N+](C)(C)CCO[C@@H](N[*:3])[C@H](O)C[C@H](N[*:1])C(=O)[*:2]; pTerphenylCO(4''-OnC5H11) = CCCCCOc1ccc(-c2ccc(-c3ccc(C(=O)*)cc3)cc2)cc1; hTyr(3S-OH,4S-OH) = N[C@H](C(=O)O)[C@H](O)[C@@H](O)c1ccc(O)cc1; Pro(3S-OH,4S-Me) = C[C@H]1CN[C@H](C(=O)O)[C@H]1O; Hyp = O=C(O)[C@@H]1C[C@@H](O)CN1
What was measured:
[1] = Plasma pharmacokinetics of rezafungin after a single 400-mg IV 1-hour infusion, open-label single-dose study, non-compartmental analysis; type: in vivo, human; settings: for half-life: n = 8, plasma sampling through 336 hours postdose, non-compartmental analysis
Source text: (§1) Abstract Background Rezafungin (RZF) is a novel echinocandin antifungal being developed for treatment of candidemia and invasive candidiasis, and for prevention of invasive fungal diseases among immunosuppressed patients. In the Phase 2 and Phase 3 treatment trials of rezafungin compared with caspofungin (STRIVE [NCT02734862] and ReSTORE [NCT03667690], respectively), patients with severe hepatic impairment (HI) were not included due to lack of caspofungin data in this population. Rezafungin was previously evaluated in patients with moderate hepatic impairment. Here we report an open-label, single-dose study on rezafungin in patients with HI (Child-Pugh class C). Methods To investigate the safety, tolerability, and pharmacokinetics (PK) of RZF in subjects with HI and healthy subjects (HS), 8 subjects with HI and 8 HS matched for age, sex, and body mass index (BMI) were enrolled and received a single 400-mg intravenous 1-hour infusion of RZF. Plasma PK sampling was performed at various time points through 336 hours postdose. RZF PK parameters were derived using non-compartmental analysis. Safety was assessed throughout the study. Results The majority of the HI subjects were White (87.5%) and male (75%) while equal distribution between White and Black or African American was observed among HS (50%) and 75% were male. The mean age of HI subjects was 58 years (range, 41–68 years) and 56.6 years (range, 50–61 years) for the HS. Mean BMI was 29.7 kg/m^2 (range, 24.5–34.3 kg/m^2) for HI subjects and 29.7 kg/m^2 (range, 25.4–34.2 kg/m^2) for the HS. […] Three HI subjects had one adverse event (AE) each (bronchitis, worsening hepatic encephalopathy, hyponatremia), all moderate in severity; one HS had 1 AE of infusion site infiltration mild in severity. […] Table 1. Plasma Rezafungin PK Parameter Estimates in Subjects with Severe Hepatic Impairment or Normal Hepatic Function After a Single 400 mg IV Infusion of Rezafungin Figure 1. […] These findings support no RZF dose adjustment in subjects with severe hepatic impairment. Disclosures Voon Ong, PhD, Cidara Therapeutics (Employee, Shareholder) Taylor Sandison, MD, MPH, Cidara Therapeutics (Employee, Shareholder) Rebeca M. Melara, M.S., Altasciences (contract research organization) (Employee) Thomas C. Marbury, MD, Orlando Clinical Research Center (Employee, Other Financial or Material Support, Equity owner of Orlando Clinical Research Center) Alena Jandourek, MD, Cidara therapeutics (Consultant) Shawn Flanagan, PhD, Cidara Therapeutics (Employee, Shareholder)

[2] = Safety and tolerability of a single 400-mg IV infusion of rezafungin in subjects with severe hepatic impairment and matched healthy subjects; type: in vivo, human
Source text: as §1

[3] = HI (Child-Pugh class C, n = 8) versus matched HS (n = 8), plasma, reduction

Question: For `CCCCCOc1ccc(-c2ccc(-c3ccc(C(=O)N[C@H]4C[C@@H](O)[C@@H](OCC[N+](C)(C)C)NC(=O)[C@@H]5[C@@H](O)[C@@H](C)CN5C(=O)[C@H]([C@@H](C)O)NC(=O)[C@H]([C@H](O)[C@@H](O)c5ccc(O)cc5)NC(=O)[C@@H]5C[C@@H](O)CN5C(=O)[C@H]([C@@H](C)O)NC4=O)cc3)cc2)cc1` [RZF, Rezafungin] ({pTerphenylCO(4''-OnC5H11)}-[Orn(4R-OH,5R-OCH2CH2NMe3+)]T[Hyp][hTyr(3S-OH,4S-OH)]T[Pro(3S-OH,4S-Me)]; lactam 1-C), which “RZF exposure (AUC) in subjects with HI, lower than that in HS” value [1, 3] is on record?
Answer: ~ 30%

Question: And the “RZF exposure (Cmax) in subjects with HI, lower than that in HS” value [1, 3]?
Answer: ~ 30%

Question: What about the half-life ([1]; both sexes, human, subjects with severe hepatic impairment (HI, Child-Pugh class C), read-out: half-life (converted)) of the same compound?
Answer: 121 h

Question: What about the half-life ([1]; healthy subjects (HS) matched for age, sex and BMI) of the same compound?
Answer: 124 h

Question: And the “adverse events considered related to RZF” value ([2]; HI and HS subjects, all AEs resolved or resolving by the end of the study)?
Answer: No AEs were considered related to RZF

Question: What about the tolerability ([2]; HI subjects (Child-Pugh class C)) of the same compound?
Answer: well tolerated

Question: What about the “number of subjects with an adverse event (AE)” value ([2]; HI subjects (n = 8), one AE each (bronchitis, worsening hepatic encephalopathy, hyponatremia), all moderate in severity) of the same compound?
Answer: Three

Question: What about the “number of subjects with an adverse event (AE)” value ([2]; healthy subjects (n = 8), 1 AE of infusion site infiltration, mild in severity) of the same compound?
Answer: one
